From patent US4921847A, “Trihalo(amine)gold(III) anti-tumor complexes” (Engelhard Corporation, priority 1989, dated 1990)
Where “and” joins values, the source holds several entries; their conditions need not be identical. Equal entries are not always repeated.

Experiments:
S180 ascites = assay: Anti-tumor evaluation against S180 ascites in mice (% increase in life span, survivors); type: in vivo, female CFW Swiss mice; conditions: for Survivors: day of evaluation; for Anti-tumor activity (in words): 50% ILS criterion; for % ILS against criterion for anti-tumor activity: failed to meet the 50% ILS criterion
Method: The above prepared compounds were evaluated against S180 ascites in female CFW Swiss mice. The mice were weighed (average weight: 20 g), placed into cages (six mice to a cage) and on day zero the mice were inoculated with 0.2 ml of a freshly prepared saline suspension (0.15 M NaCl) containing 1×10^7 tumor cells/ml or a total of 2×10^6 cells. This inoculum was freshly prepared using "transfer" mice which had been injected with tumor cells the previous week; it was obtained via the following steps: (1) the removal of cells from the peritoneal cavity of the sacrificed transfer mouse, (2) alternate centrifugation and washing operations (2-3 times with cold saline) to remove blood and other components, and (3) dilution of the volume of the packed cell with saline (1:3). A final centrifugation was carried out at 1000 RPM over a two minute period. A cell count was made on a 2,000-fold dilution of this 1:3 suspension by means of a Coulter Counter. A final dilution to 1×10^7 cells/ml was made based on the average count.
On day 1, solutions of the test compounds were prepared and each mouse in a set of six were injected with the same test compound at the same dosage. The doses were based on the average weight of the animals (cage weight). Also, beginning on day 1 two controls were employed containing six mice per control:
(1) Normal Control: This consisted solely of the carrier or diluent used in combination with the test compound; and
(2) Positive Control: This consisted solely of the known anti-tumor agent cis-[Pt(NH3)2 Cl2 ] (Cisplatin) in saline (8 mg/kg) to test the response of the biological system.
The effectiveness of a test compound was measured in terms of the % increase in life span (%ILS) of the test mice relative to the Normal Control (Calculated from the day of tumor inoculation, i.e., day zero). To standardize the test data and permit intercomparisons, the day of evaluation was arbitrarily taken as that day corresponding to twice the mean life span (or average day of death) of the control. This established a practical upper limit of 100% on the %ILS attainable. For calculation purposes the survivors on the day of evaluation were considered to have died on that day. The %ILS was calculated as follows: [formula] ILS values in excess of 50% were interpreted as being indicative of anti-tumor activity, whereas, values in excess of 75% indicated excellent activity.
The products of Examples 1, 4, 10 and 11 were administered in a freshly prepared 1% sodium bicarbonate solution; the remaining test compounds were administered as slurries in 0.5% "Klucel" (hydroxypropylcellulose).

Sarcoma 180 tumors [1] = assay: Therapeutic index (LD50/ED90), implanted Sarcoma 180 tumors; type: in vivo, Swiss white mice; set-up: ED90: unit not given here; conditions: for Therapeutic Index: LD50/ED90; for Maximum % ILS (Dosage): S 180 ascites; for ED90: dose giving 50% increase in life span for 90% of the animals, determined graphically
Solubility = type: physicochemical
Sarcoma 180 tumors [2] = conditions: comparison value; cited from earlier work

Compound | % ILS (S180 ascites; S 180 ascites, 10 mg/kg) [%] | Survivors (S180 ascites; S 180 ascites, 10 mg/kg) | % ILS (S180 ascites; S 180 ascites, 20 mg/kg) [%] | Survivors (S180 ascites; S 180 ascites, 20 mg/kg) | % ILS (S180 ascites; S 180 ascites, 40 mg/kg) [%] | Survivors (S180 ascites; S 180 ascites, 40 mg/kg) | % ILS (S180 ascites; S 180 ascites, 80 mg/kg) [%] | Survivors (S180 ascites; S 180 ascites, 80 mg/kg) | % ILS (S180 ascites; S 180 ascites, 160 mg/kg) [%] | Survivors (S180 ascites; S 180 ascites, 160 mg/kg) | % ILS (S180 ascites; S 180 ascites, 320 mg/kg) [%] | Survivors (S180 ascites; S 180 ascites, 320 mg/kg) | Therapeutic Index (Sarcoma 180 tumors [1]) | ED90 (Sarcoma 180 tumors [1]) | solubility in 1% sodium bicarbonate solution (Solubility) [mg/mL] | Anti-tumor activity (in words) (S180 ascites; S 180 ascites) | Maximum % ILS (Dosage) (Sarcoma 180 tumors [1]; 40 mg/kg) [%] | other results
O=C(O)c1ccc[n+]([Au-]([Cl])([Cl])[Cl])c1 [Example 1, Trichloro(Nicotinic Acid)Gold(III)] | -3 | 0 of 6 | 60 | 3 of 6 | 91 | 3 of 6 | 98 | 4 of 6 | 1 | 0 of 6 | -69 | 0 of 6 | 5.8 | 31 | 12.8 | – | – | peak ILS values (S180 ascites; S 180 ascites): > 90%; Maximum % ILS (Dosage) (Sarcoma 180 tumors [1]; 80 mg/kg): 98%
Cn1cc[n+]([Au-]([Cl])([Cl])[Cl])c1 [Example 2, Trichloro(N-Methylimidazole)Gold(III)] | 14 | 0 of 6 | 33 | 1 of 6 | 91 | 4 of 6 | 53 | 1 of 6 | -93 | 0 of 6 | – | – | 2.8 | 31 | – | decidedly active | 91 | peak ILS values (S180 ascites; S 180 ascites): > 90%; % ILS (S180 ascites; S 180 ascites, 5 mg/kg): 2%; Survivors (S180 ascites; S 180 ascites, 5 mg/kg): 0 of 6; active dose range (S180 ascites; S 180 ascites, decidedly active within the range): 20 to 40 mg/kg
CC(=O)c1ccc[n+]([Au-]([Cl])([Cl])[Cl])c1 [Example 3, trichloro(3-acetylpyridine)gold(III)] | -5 | 0 of 6 | 42 | 1 of 6 | 97 | 5 of 6 | 66 | 4 of 6 | 23 | 0 of 6 | -90 | 0 of 6 | 4.5 | 31 | – | – | 97 | peak ILS values (S180 ascites; S 180 ascites): > 90%
O=C(O)Cc1ccc[n+]([Au-]([Cl])([Cl])[Cl])c1 [Example 4, trichloro(3-pyridyacetic acid)gold(III)] | 6 | 0 of 6 | -15 | 0 of 6 | 63 | 1 of 6 | 57 | 1 of 6 | -41 | 0 of 6 | -90 | 0 of 6 | 1.8 | 84 | 12.8 | pronounced antitumor effect | 63 | –
Oc1ccc[n+]([Au-]([Cl])([Cl])[Cl])c1 [Example 5] | 9 | 0 of 6 | 39 | 2 of 6 | 61 | 3 of 6 | 30 | 2 of 6 | -36 | 0 of 6 | -85 | 0 of 6 | – | 87 | – | – | 61 | –
OCc1ccc[n+]([Au-]([Cl])([Cl])[Cl])c1 [Example 6] | 6 | 0 of 6 | 63 | 1 of 6 | 85 | 3 of 6 | 46 | 0 of 6 | -70 | 0 of 6 | -93 | 0 of 6 | 2.1 | 43 | – | – | 85 | –
[Cl][Au]([Cl])[Cl].c1ccncc1 [Example 7, trichloro(pyridine)gold(III)] | 45 | 3 of 6 | 71 | 2 of 6 | 66 | 3 of 6 | -6 | 2 of 6 | -94 | 0 of 6 | -94 | 0 of 6 | – | 35 | – | – | – | Maximum % ILS (Dosage) (Sarcoma 180 tumors [1]; 20 mg/kg): 71%
[Cl][Au-]([Cl])([Cl])[n+]1cc[nH]c1 [Example 8, trichloro(imidazole)gold(III)] | -7 | 0 of 6 | 1 | 1 of 6 | -16 | 0 of 6 | 37 | 1 of 6 | 37 | 2 of 6 | – | – | – | – | – | considered to be inactive | – | % ILS (S180 ascites; S 180 ascites, 5 mg/kg): 5%; Survivors (S180 ascites; S 180 ascites, 5 mg/kg): 0 of 6; Anti-tumor activity (in words) (S180 ascites; S 180 ascites, listed as trichloro(imidazole)gold(III)): inactive in bringing about a regression of S 180 ascites at all doses tested; % ILS against criterion for anti-tumor activity (S180 ascites): < 50%
Cn1cc[n+]([Au-]([Br])([Br])[Br])c1 [Example 9, Tribromo(N-Methylimidazole)Gold(III)] | 5 | 0 of 6 | 76 | 4 of 6 | 66 | 3 of 6 | -1 | 1 of 6 | -94 | 0 of 6 | -94 | 0 of 6 | 2.0 | 42 | – | – | – | Maximum % ILS (Dosage) (Sarcoma 180 tumors [1]; 20 mg/kg): 76%
O=C(O)c1ccc[n+]([Au-]([Br])([Br])[Br])c1 [Example 10] | -23 | 0 of 6 | 26 | 0 of 6 | 64 | 2 of 6 | 49 | 0 of 6 | -19 | 0 of 6 | -95 | 0 of 6 | – | – | 12.8 | – | – | –
O=C(O)Cc1ccc[n+]([Au-]([Br])([Br])[Br])c1 [Example 11, tribromo(3-pyridylacetic acid)gold(III)] | -16 | 0 of 6 | 20 | 0 of 6 | 10 | 0 of 6 | 31 | 1 of 6 | -21 | 0 of 6 | -92 | 0 of 6 | – | – | 12.8 | considered to be inactive | – | Anti-tumor activity (in words) (S180 ascites; S 180 ascites, listed as tribromo(3-pyridylacetic acid)gold(III)): inactive as an anti-tumor agent; % ILS against criterion for anti-tumor activity (S180 ascites): < 50%
cis-[Pt(NH3)2 Cl2 ] [Cisplatin, reference compound] | – | – | – | – | – | – | – | – | – | – | – | – | – | – | – | – | – | Positive Control Survivors (S180 ascites; S 180 ascites, Cisplatin in saline, 8 mg/kg, one value per test series, listed as Positive Control): 0 of 6 and 4 of 6 and 6 of 6 and 1 of 6; Therapeutic index attributed to commercially available Cisplatin (Sarcoma 180 tumors [2]): 2.2-2.5
